The record followed here is patent US20260008768A1, “UREA DERIVATIVES FOR INHIBITING NLRP3 AND USES THEREOF” (VENTUS THERAPEUTICS U.S., INC., priority 2023, published 2026).

Broadly, the IC50 is the concentration that gives 50% inhibition.

A value given as a limit tells only on which side of the number the result lay.

In assay [1] the target is T1, human NLRP3 (Homo sapiens, UniProt Q96P20). Briefly: Human PBMC NLRP3 Assay (LPS priming, ATP stimulation, cytokine measurement). To be noted: Table B, activity class; human PBMC, LPS + ATP. Type of assay: cell-based. Also noted: host or cells: human PBMCs (A2); human whole blood from healthy volunteers (A3). As for the experimental part:
Reagents: Human PBMCs (Normal): iXCells Cat #10HU-003; RPMI 1640 medium with GlutaMAX: ThermoFisher Cat #61870127 (Complete Media: 4.5 g/L D-glucose, 10% FBS, 100 mM NaPyr, 1% Pen/Strep, 10 mM HEPES and 0.05 mM of ®-mercaptoethanol; Assay Media: 4.5 g/L D-glucose, 100 mM NaPyr, 1% Pen/Strep, 10 mM HEPES and 0.05 mM of mercaptoethanol; 96-well V-bottom Plates: Costar Cat #3894; LPS (E. coli O26:B6): Sigma Cat #L2654, stock 5 mg/mL in PBS; ATP: Sigma Cat #A6419, prepared in a 250 mM stock in 1 M HEPES (adjusted to pH 7.4).
Cryopreserved PBMCs were rapidly thawed in a 37° C. water bath for 2 min. Cells were then centrifuged at 1200 RPM for 5 min and resuspended in ˜50 mL of fresh RPMI 1640 Complete Medium. A count was undertaken using a hemocytometer and adjusted to 2.5×10^5 cells/mL. V-shaped 96-well plates were seeded with 200 μL of PBMCs (5×10^4) per well and subsequently incubated overnight at 37° C. with 5% CO2. Assay Media was then prepared containing 100 ng/ml of LPS. PBMCs were then centrifuged at 1,200 RPM for 5 min, serum containing media was aspirated, and 150 μL/well of Assay Media+LPS was immediately added. Assay Media without LPS was added in the untreated control wells. Cells were then primed with LPS for 4 h at 37° C. with 5% CO2. A concentration response curve (CRC) was prepared of 1000× test compound in 100% DMSO. The CRC was then diluted 1:50 in Assay Media and then further diluted by 1:5× in Assay Media resulting in a final 4×CRC in 0.4% DMSO/Assay Media. 50 μL/well of 4× test compound CRC or vehicle (0.4% DMSO/Assay Media) was then transferred into each well and subsequently incubated for 30 min at 37° C. with 5% CO2. Cells were stimulated by adding 4 μL of 250 mM ATP, using a 250 mM stock prepared in 1 M Hepes without further dilution (for a final concentration of 5 mM), for 1 h at 37° C. with 5% CO2 Plates were then centrifuged at 1200 RPM for 5 min; and 50 μl of the media was transferred to a clean 96-well storage plate for cytokine measurements using the mesoscale platform, and stored at −80° C. until analyzed. Compounds were added 30 minutes before priming the cells with LPS when TNFα was required to be quantified in the cytokine panel to confirm selectivity.
PBMC NLRP3 IC50 assay results, as a measurement of cellular potency, are provided in Table B. “A” activity=<0.01 uM; “B” activity=0.01-0.1 uM; “C” activity=>0.1-0.5 uM; “D” activity=>0.5 uM.

Assay [2] has as its target T1, human NLRP3. Briefly: Human Whole Blood (hWB) NLRP3 Assay (LPS/ATP, IL-1β). Format: cell-based. Also noted: host or cells: human whole blood from healthy volunteers (A3). Particulars: Table B, activity class. As for the experimental part:
Human whole blood is drawn from healthy volunteers after obtaining written informed consent. Heparin lithium coated tubes are used to collect blood from volunteers. Blood samples are distributed on 96 well plates using 90 μl per well.
Priming procedure: Priming is performed by adding 5 μl of LPS (O26:B6; Sigma L-2654) at a final concentration of 1 μg/ml for 4.5 hours in a humidified incubator with 37° C., 5% CO2. Thirty minutes prior to NLRP3 activation, 5 μl of a 20× compound solution or vehicle (2% dimethylsulfoxide (DMSO)) is added to each well and plates were incubated on a shaker (450 rpm) in a humidified incubator with 37° C., 5% CO2.
Alternative priming procedure: Thirty minutes prior to LPS priming, 5 μl of a 20× compound solution or vehicle (2% dimethylsulfoxide (DMSO)) is added to each well and plates were incubated on a shaker (450 rpm) in a humidified incubator with 37° C., 5% CO2. Priming is performed by adding 5 μl of LPS (O26:B6; Sigma L-2654) at a final concentration of 1 μg/ml for 5 hours in a humidified incubator with 37° C., 5% CO2.
Activation is then performed by adding 3.3 μl of a 31×ATP solution per well. At the end of the 30 minutes stimulation, the plates are centrifuged (800 g, 10 min, room temperature) and the plasma from each well is frozen at −80° C. IL-1β levels in the supernatant were analyzed using a mesoscale discovery assay (MSD K151TUK) according to the manufacturers' instructions.
There is no detectable difference in assay results using the priming procedure versus the alternative priming procedure.
hWB NLRP3 IC50 assay results, as a measurement of whole blood potency, are provided in Table B. “A” activity=<1 uM; “B” activity=1-2 uM; “C” activity=>2-3 uM; “D” activity=>3 uM.

Assay [3] addresses T1, human NLRP3. Briefly: Scintillation Proximity (SPA) NLRP3 Assay, displacement of 3H-MCC950. Format: binding. Particulars: Table B, activity class; displacement of 3H-MCC950 from human NLRP3. The gist of the method:
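Displacement of radioligand 3H-MCC950 (125 nM final) from 350 nM human NLRP3, read by scintillation proximity after 6 h equilibration with PVT beads. Buffer: 20 mM HEPES pH 7.5, 150 mM NaCl, 5 mM MgCl2, 100 μM ADP; compound preincubated 15 min, ligand 60 min, RT. IC50 from specific binding.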
Background: Scintillation proximity formats need no separation of bound from free tracer.

T1 sequence (Q96P20 whole entry): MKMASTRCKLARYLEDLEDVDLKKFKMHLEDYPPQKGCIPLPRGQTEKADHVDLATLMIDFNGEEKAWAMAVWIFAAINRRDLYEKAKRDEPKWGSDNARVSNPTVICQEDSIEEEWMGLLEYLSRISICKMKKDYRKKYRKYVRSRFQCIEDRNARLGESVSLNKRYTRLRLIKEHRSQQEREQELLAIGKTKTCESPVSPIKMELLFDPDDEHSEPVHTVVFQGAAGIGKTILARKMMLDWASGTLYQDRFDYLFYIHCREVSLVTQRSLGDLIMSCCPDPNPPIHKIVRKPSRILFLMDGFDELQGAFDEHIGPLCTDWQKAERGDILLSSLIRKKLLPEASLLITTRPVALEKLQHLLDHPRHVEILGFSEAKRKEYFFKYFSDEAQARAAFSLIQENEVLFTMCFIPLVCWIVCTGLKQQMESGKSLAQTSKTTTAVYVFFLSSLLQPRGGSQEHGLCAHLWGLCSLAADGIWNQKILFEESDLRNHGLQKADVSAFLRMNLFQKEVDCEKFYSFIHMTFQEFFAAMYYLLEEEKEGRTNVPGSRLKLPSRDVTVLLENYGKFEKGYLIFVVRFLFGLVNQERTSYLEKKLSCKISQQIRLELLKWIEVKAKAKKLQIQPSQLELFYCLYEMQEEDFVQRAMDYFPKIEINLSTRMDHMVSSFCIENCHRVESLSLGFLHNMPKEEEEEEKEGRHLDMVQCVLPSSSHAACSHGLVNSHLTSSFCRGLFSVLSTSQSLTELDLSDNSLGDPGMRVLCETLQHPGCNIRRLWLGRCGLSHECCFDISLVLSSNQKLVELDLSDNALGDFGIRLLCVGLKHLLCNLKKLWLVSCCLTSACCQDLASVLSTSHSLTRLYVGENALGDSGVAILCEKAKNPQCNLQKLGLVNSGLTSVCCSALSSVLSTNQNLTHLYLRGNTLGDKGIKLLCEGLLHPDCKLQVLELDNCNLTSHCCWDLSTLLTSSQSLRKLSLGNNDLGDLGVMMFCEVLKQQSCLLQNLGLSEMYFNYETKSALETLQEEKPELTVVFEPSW

As for `C[C@@H]1CCN(c2nnn[nH]2)C[C@H](NC(=O)N(C)c2c(F)cc(C3CC3)cc2F)C1` (single isomer, unassigned) [20A*], the IC50 on human NLRP3 [1] is below 10 nM; at human NLRP3 [2] it was below 1000 nM; on human NLRP3 [3] it was below 1000 nM.

In the case of `C[C@@H]1CCN(c2nnn[nH]2)C[C@H](NC(=O)N(C)c2ccc(OC(F)F)cc2F)C1` (single isomer, unassigned) [17A*], the 50% inhibitory concentration (IC50) is below 10 nM at human NLRP3 [1], 1000 to 2000 nM at human NLRP3 [2] and below 1000 nM on human NLRP3 [3].

As to `C[C@@H]1CCN(c2nnn[nH]2)C[C@H](NC(=O)N(C)c2ccc(OC(F)F)c(OC(F)F)c2)C1` (single isomer, unassigned) [16A*], the IC50 at human NLRP3 [1] is below 10 nM; against human NLRP3 [2], 1000 to 2000 nM; at human NLRP3 [3] it was below 1000 nM.

As to `C[C@@H]1CCN(c2nnn[nH]2)C[C@H](NC(=O)N(C)c2ccc(OC(F)F)c(F)c2F)C1` (single isomer, unassigned) [40A*], the IC50 on human NLRP3 [1] is 10 to 100 nM; on human NLRP3 [2] it was 1000 to 2000 nM; on human NLRP3 [3] it was below 1000 nM.

For the compound `C[C@@H]1C[C@@H](NC(=O)N(C)c2ccc(C3CC3)c(F)c2)[C@H]2CC[C@@H]1N2c1nnn[nH]1` (single isomer, unassigned) [54A*], the IC50 on human NLRP3 [1] is below 10 nM; against human NLRP3 [2], below 1000 nM; on human NLRP3 [3] it was below 1000 nM.

Turning to `C[C@@H]1CCN(c2nnn[nH]2)C[C@H](NC(=O)N(C)c2c(F)cc(OC(F)F)cc2F)C1` (single isomer, unassigned) [19A*], the IC50 on human NLRP3 [1] was below 10 nM; against human NLRP3 [2], below 1000 nM; at human NLRP3 [3] it was below 1000 nM.

Regarding `C[C@@H]1C[C@@H](NC(=O)N(C)c2ccc(OC(F)F)c(OC(F)F)c2)[C@H]2CC[C@@H]1N2c1nnn[nH]1` (single isomer, unassigned) [64A*], the IC50 on human NLRP3 [1] was 10 to 100 nM; against human NLRP3 [2], below 1000 nM; at human NLRP3 [3] it was below 1000 nM.

Take `C[C@@H]1C[C@@H](NC(=O)N(C)c2ccc(OC(F)(F)F)c(F)c2F)[C@H]2CC[C@@H]1N2c1nnn[nH]1` (single isomer, unassigned) [59A*]: the IC50 on human NLRP3 [1] was 100 to 500 nM; on human NLRP3 [2], 2000 to 3000 nM; at human NLRP3 [3], below 1000 nM.

Turning to `C[C@@H]1C[C@@H](NC(=O)N(C)c2ccc(C(F)(F)F)c(F)c2)[C@H]2CC[C@@H]1N2c1nnn[nH]1` (single isomer, unassigned) [49A*], the IC50 is 10 to 100 nM at human NLRP3 [1], 1000 to 2000 nM against human NLRP3 [2] and below 1000 nM on human NLRP3 [3].

For `C[C@@H]1CCN(c2nnn[nH]2)C[C@H](NC(=O)N(C)c2ccc(OC(F)(F)F)c(F)c2)C1` (single isomer, unassigned) [14A*], the results for the IC50 at human NLRP3 [1], at human NLRP3 [2] and on human NLRP3 [3] were 10 to 100 nM, 1000 to 2000 nM and below 1000 nM, respectively.

Take `CCN(C(=O)N[C@@H]1C[C@H](C)CCN(c2nnn[nH]2)C1)c1ccc(OC(F)(F)F)cc1` (single isomer, unassigned) [43A*]: the IC50 at human NLRP3 [1] is below 10 nM; at human NLRP3 [2], below 1000 nM; on human NLRP3 [3] it was below 1000 nM.

For `C[C@@H]1CCN(c2nnn[nH]2)C[C@H](NC(=O)N(C)c2c(F)cc(OC(F)(F)F)cc2F)C1` (single isomer, unassigned) [41A*], the IC50 on human NLRP3 [1] is below 10 nM; on human NLRP3 [2] it was below 1000 nM; at human NLRP3 [3], below 1000 nM.

Regarding `C[C@@H]1C[C@@H](NC(=O)N(C)c2c(F)cc(C3CC3)cc2F)[C@H]2CC[C@@H]1N2c1nnn[nH]1` (single isomer, unassigned) [60A*], the IC50 was below 10 nM at human NLRP3 [1], below 1000 nM against human NLRP3 [2] and below 1000 nM on human NLRP3 [3].

For `C[C@@H]1C[C@@H](NC(=O)N(C)c2c(F)cc(OC(F)(F)F)cc2F)[C@H]2CC[C@@H]1N2c1nnn[nH]1` (single isomer, unassigned) [62A*], the IC50 is 10 to 100 nM on human NLRP3 [1], below 1000 nM against human NLRP3 [2] and below 1000 nM at human NLRP3 [3].

Turning to `C[C@@H]1CCN(c2nnn[nH]2)C[C@H](NC(=O)N(C)c2ccc(Cl)c(F)c2)C1` (single isomer, unassigned) [12A*], the IC50 on human NLRP3 [1] is 10 to 100 nM; at human NLRP3 [2] it was 2000 to 3000 nM; on human NLRP3 [3] it was below 1000 nM.

Regarding `C[C@@H]1CCN(c2nnn[nH]2)C[C@H](NC(=O)N(C)c2ccc(C(F)F)cc2F)C1` (single isomer, unassigned) [18A*], the IC50 on human NLRP3 [1] was below 10 nM; at human NLRP3 [2], below 1000 nM; at human NLRP3 [3], below 1000 nM.

For the compound `C[C@@H]1C[C@@H](NC(=O)N(C)c2c(F)cc(OC(F)F)cc2F)[C@H]2CC[C@@H]1N2c1nnn[nH]1` (single isomer, unassigned) [61A*], the IC50 on human NLRP3 [1] was below 10 nM; on human NLRP3 [2], below 1000 nM; at human NLRP3 [3], below 1000 nM.
